Patent US7776572B2, “Method for reducing loss of enzyme activity during storage” (Corning Incorporated, priority 1996, dated 2010)
Marks after values point to notes of the source that are not given here.

Legend:
[1] = test system: Horse IgG; test: Protein binding by colloidal gold staining, coated medium binding polystyrene plates; conditions: coated medium binding PS; IgG 10 μg/ml, pH 9.4
Protocol: Except where indicated, the non-ionic surfactants were applied to the hydrophobic surfaces being tested as a 0.1% (weight/volume) solution in isopropanol. A sufficient amount of coating solution was used to cover the surface being testing with a thin layer of the solution (e.g., 25 μl of the solution per well for a standard 24-well plate). In some cases, the solution was applied to surface by spraying; in others, it was poured onto the surface (into the well). Except where indicated, coated samples were either dried at 70° C. for 30 minutes in an air circulated oven or dried at room temperature overnight to evaporate the isopropanol.
Protein binding was determined in some examples using a colloidal gold straining procedure. In accordance with this procedure, colloidal gold becomes electrostatically attached to bound protein and is detected by measuring absorbance at 550 nanometers. Bio-Rad Laboratories' Colloidal Gold Total Protein Stain was used for this purpose, with absorbance being measured with a Cambridge Technologies Plate Reader (No. 7520).
The surfactants were coated onto medium binding polystyrene plates (Corning Costar No. 2587) as described in Material and Methods.
The plates were incubated with IgG as follows: 0.1 ml of Horse IgG (Pierce Labs) at a working concentration of 10 μg/ml in 0.10M NaHCO3 buffer (pH9.4) were added to each well, incubated 30 minutes on a rocker table, and rinsed with dI H2O. The plates were gold stained overnight (0.3 ml/well), rinsed in dI H2O, air dried, and absorbance was measured at 550 nm.

[2] = test system: BSA protein (Bovine Serum Albumin, Fraction V); test: BSA binding to coated polystyrene 24-well plates at different pH, colloidal gold stain; conditions: for Absorbance (550 nm) pH = 9.2: BSA 10 μg/ml in 0.10 M NaHCO3 buffer; for Absorbance (550 nm) pH = 7.4: BSA 10 μg/ml in 0.10 M PBS; for Absorbance (550 nm) pH = 4.6: BSA 10 μg/ml in 0.10 M acetate buffer
Protocol: Polystyrene plates having 24 wells (Corning Costar #9447) were coated as described in Materials and Methods.
BSA protein (Bovine Serum Albumin, Fraction V, Sigma) was prepared at 10 μg/ml in 0.10 M acetate buffer (pH=4.6), in 0.10 M PBS (pH=7.4), and in 0.10 M NaHCO3 buffer (pH=9.2). Wells of each coated plate, along with uncoated controls, were aliquoted 0.50 ml each of the protein solutions. The samples were run in triplicate.
The plates were placed on a rocker table for 30 minutes at 23° C. The protein solutions were then emptied from the plates, and the wells were rinsed three times with dl H2O. Thereafter, 1.0 ml of colloidal gold stain was added to each well (see Materials and Methods). The plates were placed on a rocker table overnight, rinsed three times with dI H2O, and air dried. Absorbance at 550 nm was then read using the Cambridge Technologies Plate Reader.

[3] = test system: ^125I-IgG (goat anti-mouse); test: Radiometric determination of IgG binding to surfactant-coated polystyrene microtiter wells; conditions: for Total IgG binding, Non-Sterilized: coated polystyrene wells; for Total IgG binding, Non-Sterilized / Tight IgG binding, Non-Sterilized: not sterilized; for Total IgG binding, Non-Sterilized / Total IgG binding, Sterilized: after three PBS washes; for Total IgG binding, Sterilized / Tight IgG binding, Sterilized: gamma sterilized (1.5 Mrad); for Tight IgG binding, Sterilized / Tight IgG binding, Non-Sterilized: after two hours in PBS-Tween (0.05%)
Protocol: The hydrophobic surfaces used were flat bottom microtiter plates composed of high binding polystyrene (Corning Costar No. 2581) and medium binding polystyrene (Corning Costar No. 2587). Testing was performed with and without gamma radiation sterilization using cobalt 60 (1.5 Mrad).
The surfactants were applied to the test plates as described in Materials and Methods, followed by sterilization where indicated.
Levels of protein binding were determined using a radiolabeled protein, namely, ^125I-IgG (goat anti-mouse) purchased from DuPont/NEN. Unlabeled IgG in sodium carbonate buffer pH 9.2 was spiked with ^125I-IgG so that the final concentration of labeled IgG and cold IgG in the test solution was 10 μg/mL.
Aliquots of 0.1 milliliters of the protein solution were placed in quadruplicate in the wells of 8-well strips removed from the test microtiter plates. The wells were incubated overnight at 4° C. with shaking. The supernatants were removed from the wells, followed by three washes with 0.2 mL of PBS. The wells were then dried and individually counted to determine “total” IgG binding. After determining “total” binding, the wells were incubated for two hours in 0.2 mL of PBS-Tween (0.05%) at room temperature with shaking. The supernatants were removed from the wells followed by three washes with 0.2 mL of PBS. The wells were dried and individually counted to determine “tight” IgG binding.
Untreated high binding and medium binding plates were used as controls. A comparative experiment was also performed in which a BSA protein coating was used in place of a surfactant coating. The BSA was preabsorbed onto the walls of the wells and then washed to remove excess material. Testing was then performed using the radiolabeled IgG solution as described above.
Radiolabel measurements were performed in a double blind study at BioMolecular Assays (Woburn, Mass.). IgG binding values per microwell were converted to ng/cm^2 values using a surface area of 0.94 cm^2 for a 0.1 mL volume.

[4] = test system: HRP-Goat A'Mouse IgG; test: Enzymatic determination of protein binding to coated medium binding polystyrene plate; conditions: coated medium binding PS; versus uncoated high binding polystyrene plate; absorbance 405 nm
Protocol: The surfactants were coated onto a medium binding polystyrene plate (Corning Costar No. 2587) as described in Material and Methods. A medium binding polystyrene plate (Corning Costar No. 2587) and a high binding polystyrene plate (Corning Costar No. 2581) were used as controls.
(a) HRP-Goat A'Mouse IgG: Kirkegaard & Perry Laboratories, Inc. Catalog No. 074-1806. Stock solution: 0.5 mg/ml; working concentration: 0.04 μg/ml. The working concentration was obtained by adding 11 μl of the stock solution per 25 mls of PBS pH 7.4 to produce a work stock (WS), and then diluting 1:6 (i.e., 10 mls WS+50 mls PBS pH 7.4).
(1) 100 μl-well of HRP-Goat A'Mouse IgG at a concentration of 0.04 μg/ml were added to the test wells and incubated for 1 hour at room temperature.
(2) The wells were then washed 5 times with the 1M wash solution. Each wash include a 5 minute soak followed by decanting.
(3) 100 μl/well of substrate (30 mls ABTS+30 mls H2O2) were added to the test wells and incubated for 15 minutes at room temperature in the dark.
(4) 100 μl/well of stopping solution (1% SDS) were added to the test wells.
(5) The plates were then shaken and read at 405 nm.
(6) Reduction in binding was determined by comparing the absorbance measured in step (5) with the absorbance measured for a high binding polystyrene plate which had not been treated with a non-ionic surfactant but otherwise subjected to steps (1) to (5).

[5] = test system: rat; conditions: cited from earlier work
[6] = test system: BSA; test: Polymer blends molded into petri dishes, BSA binding by colloidal gold
[7] = test system: Fetal Bovine Serum (FBS); test: Polymer blends molded into petri dishes, FBS protein binding by colloidal gold
Protocol: Low binding non-ionic surfactant molecules were blended at 5% (except as noted in Table 13) into a base polymer using a twin screw extruder, then injection molded into the shape of 35 mm petri dishes. Proteins tested were BSA and Fetal Bovine Serum (FBS). Protein binding was determined using a colloidal gold staining procedure as described above. In the case of the polypropylene and EVA blends, a silver enhancer was used (Sigma Chem. Co., St, Louis, Mo., Kit #SE-100).

[8] = test system: MDCK cells; test: Cytotoxicity of extracts of coated plates; format: cell-based; conditions: media extract of coated plates (37° C., 48 hours), MDCK 72 hours, Gram Crystal Violet
Protocol: Cytotoxicity experiments were performed using MDCK cells. The non-ionic surfactants tested were Pluronic L-121, L-122, and P-123; Span 80 and 85; and Brij 30, 72 and 93. These molecules were coated onto 24-well plates (Corning Costar #9447) from 0.1% (w/v) in isopropanol. Untreated polystyrene and normal tissue culture treated polystyrene (Corning Costar #25820) 24-well plates were used as controls. All plates were incubated at 37° C. for 48 hours with 2 ml/well of complete DMEM media containing 10% Fetal Bovine Serum (FBS). This incubation was performed in order to extract any potentially toxic compounds from the coated surface into the cell growth serum. The FBS solutions were then transferred to tissue culture treated polystyrene and each well was inoculated with ≈2×10^4 cells/well of MDCK cells, and then incubated at 37° C. for 72 hours in a 5% CO2 atmosphere. Cells were then stained with Gram Crystal Violet.

[9] = test system: MDCK cells; test: MDCK cell attachment to coated polystyrene 24-well plates; format: cell-based; conditions: coated PS 24-well, gamma sterilized, media with 5% FBS, two days, visual
Protocol: (§1) The procedures used were as follows. Polystyrene 24-well plates were coated with the non-ionic surfactants listed in Table 5 in accordance with the procedures described in Materials and Methods. Uncoated plates were used as a control. For comparison, plates with a covalently attached acrylamide coating (Corning Costar Catalog #2500) and with a stearic acid coating were also tested. The stearic acid coating was applied in the same manner as the non-ionic surfactants again using a 0.1% (w/v) solution.
(§2) The plates were gamma sterilized at 1.5 Mrad and then inoculated with 5.6×10^4 MDCK […] per well in 1 ml of complete media containing 5% FBS (Fetal Bovine Serum). Incubation was carried out at 37° C. in a 5% CO2 atmosphere for two days. The plates were fixed and stained, and cell attachment was noted. Following this, the wells were stained using the colloidal gold technique to detect bound protein. Only visual observations were made.
Experiments were also performed with cells suspended in serum. The cells used in these experiments were MDCK cells. The surfactants used were the same as used in Table 5. Again, reduced binding of the cells to surfaces treated with a non-ionic surfactant was observed.

[10] = test system: IgG; test: Coating durability using water washes, IgG binding by colloidal gold; conditions: for Absorbance (550 nm) Initial: coated polystyrene, no water wash; for Absorbance (550 nm) 1 Time 1 hr 23° C. / Absorbance (550 nm) 1 Time 24 hr 23° C. / Absorbance (550 nm) 1 Time 24 hr 37° C. / Absorbance (550 nm) 1 Time 24 hr 70° C.: dI H2O wash 1 time; for Absorbance (550 nm) 6 Times 30 min each 23° C.: dI H2O wash 6 times
Protocol: Polystyrene plates having 24 wells (Corning Costar #9447) were coated with these surfactants as described in Materials and Methods. Durability was tested by adding dI H2O to the wells of a test plate (3.0 mls/well), following which the plate was placed on a rocker table. […] The protein solution was incubated with the plate on a rocker table for 30 minutes at 23° C., following which the plate was H2O rinse 3× (3 mls each time). The colloidal gold staining procedure described above was used to reveal bound protein. The staining comprised an overnight incubation on a rocker table at 23° C., a dI H2O rinse, drying at room temperature, and reading at 550 nm.

[11] = test system: bound protein; test: Colloidal gold staining of bound protein after MDCK culture in media containing 5% FBS, visual; conditions: colloidal gold after cell culture, visual observation
Protocol: as §1, §2

[12] = blended at 5% into polypropylene, silver enhancer

| Compound | IgG Protein Binding Absorbance (550 nm) [1] | Absorbance (550 nm) pH = 9.2 [2] | Absorbance (550 nm) pH = 7.4 [2] | Absorbance (550 nm) pH = 4.6 [2] | Total IgG binding, Non-Sterilized [3] | Total IgG binding, Sterilized [3] | Tight IgG binding, Sterilized [3] | Tight IgG binding, Non-Sterilized [3] | % Reduction in Protein Binding [4] | LD50 [5] | Bound Protein Absorbance (550 nm) BSA [6, 12] | Bound Protein Absorbance (550 nm) FBS [7, 12] | cell growth and morphology [8] | Absorbance (550 nm) Initial [10] | Absorbance (550 nm) 1 Time 1 hr 23° C. [10] | Absorbance (550 nm) 1 Time 24 hr 23° C. [10] | Absorbance (550 nm) 1 Time 24 hr 37° C. [10] | Absorbance (550 nm) 1 Time 24 hr 70° C. [10] | Absorbance (550 nm) 6 Times 30 min each 23° C. [10] | further results |
| --- | --- | --- | --- | --- | --- | --- | --- | --- | --- | --- | --- | --- | --- | --- | --- | --- | --- | --- | --- | --- |
| CCCCCCCCCCCCCCCCCC(=O)OCCOCCOCCOCCOCCOCCOCCOCCO [PEO(8) STEARATE] | 0.00 | 0.00 | 0.00 | 0.00 | 6 ng/cm^2 | 15 ng/cm^2 | 9 ng/cm^2 | 3 ng/cm^2 | 99.1% | >31 grams/Kg | – | – | – | – | – | – | – | – | – | – |
| CCCCCCCCCCCCCCCCCCOCCOCCO [PEO(2) STEARYL ETHER] | 0.00 | 0.00 | 0.00 | 0.00 | 83 ng/cm^2 | 36 ng/cm^2 | 17 ng/cm^2 | 28 ng/cm^2 | 97.9% | >25 grams/Kg | 0.000 | 0.000 | confluent cell growth with normal cell morphology | – | – | – | – | – | – | BSA or FBS protein binding ([6]; blend in polypropylene or EVA): no detectable; Bound Protein Absorbance (550 nm) BSA ([6]; blended at 5% into polystyrene): 0.008; Bound Protein Absorbance (550 nm) FBS ([7]; blended at 5% into polystyrene): 0.009 |
| SORBITOL MONO-PALMITATE | 0.00 | 0.00 | 0.00 | 0.00 | – | – | – | – | 88.9* % | – | – | – | – | 0.00 | 0.00 | 0.00 | 0.00 | 0.00 | 0.02-0.06 | MDCK Attachment [9]: None; Visual Color Upon Protein Staining [11]: None |
| SORBITOL TRI-OLEATE | – | – | – | – | – | – | – | – | – | – | 0.000 | 0.000 | confluent cell growth with normal cell morphology | 0.00 | 0.00 | 0.00 | 0.00 | 0.00 | 0.00 | – |
